Columns and labels:
mouse myoblasts [1] = assay: Migration of mouse myoblasts transiently over-expressing MMPs; format: cell-based; details: NAC treatment, n=4
Experimental: (§1) Myoblast migration and invasion were examined using a commercially available in vitro cell migration and invasion assay kit (Biocoat, Becton Dickinson, Franklin Lakes, N.J.) as described by Albini et al. (A rapid in vitro assay for quantitating the invasive potential of tumor cells Cancer Res 47:3239-3245, 1987). Myoblasts were grown to approximately 70% confluence, rinsed three times in serum-free DMEM, followed by incubation for 3 hours in 0.2% bovine serum albumin (BSA) in DMEM to eliminate the effects of serum. Cells were then trypsinized and collected by centrifugation. Cells were resuspended in serum-free DMEM at a density of 1×10^5 cells/ml, and 0.5 ml aliquots of cell suspension were added to the top chamber. […] Fibronectin subfragments of 45 KDa (Sigma), 120 kDa (Gibco), 63 kDa (Retronectin, Takara) and 70 KDa (Sigma) were used alone or in combination. The growth factor concentrations used were those which could produce maximal effects as examined in the present studies by extending from values reported by Bischoff (“Chemotaxis of skeletal muscle satellite cells” Devel. Dynamics 208:505-515, 1997). […] The number of cells per field was counted in 10 randomly selected fields and averaged for each condition. […]

mouse myoblasts [2] = assay: Invasion of mouse myoblasts transiently over-expressing MMPs; format: cell-based; details: NAC treatment, n=4
Experimental: as §1

[3] = MMP-1 over-expressing myoblasts
[4] = MMP-2 over-expressing myoblasts

SMILES: CC(=O)N[C@@H](CS)C(=O)O [NAC, N-acetyl cysteine, reference compound]
- migration capability relative to non-NAC treated cells (mouse myoblasts [1]; [3]): 35%
- migration capability relative to non-NAC treated cells (mouse myoblasts [1]; [4]): 22%
- invasion relative to non-treated cells (mouse myoblasts [2]; [3]): 40%
- invasion relative to non-treated cells (mouse myoblasts [2]; [4]): 28%

Source: patent publication US20010055590A1, “Method for enhancing myoblast migration and invasion in the context of gene therapy” (priority 1999, published 2001)
